{"source": "patent US20140357512A1", "about": "“HISTONE DEACETYLASE (HDAC) BIOMARKERS IN MULTIPLE MYELOMA” (priority 2013, published 2014)", "system": "human myeloma cell line MM.1S", "test": "SILAC acetylated-lysine peptide profiling, HDAC inhibitor vs DMSO (light/heavy ratio)", "assay_type": "cell-based", "source_text": "An embodiment of the invention comprises utilizing the SILAC method in order to quantitate changes in protein expression between two or more populations of cells. The SILAC method is a technique based on mass spectrometry that detects differences in protein abundance among samples using non-radioactive isotopic labeling. The SILAC method is known in the art, and described in detail in Ong et al., “Stable Isotope Labeling by Amino Acids in Cell Culture, SILAC, as a Simple and Accurate Approach to Expression Proteomics”, Molecular & Cellular Proteomics, vol. 1, pp. 376-386 (2002), which is incorporated herein by reference in its entirety.\nBriefly, the SILAC method involves growing two populations of cells in cell culture. The first population of cells is grown in growth media containing normal amino acids (“normal media”). The second population of cells is grown in media lacking a standard essential amino acid (such as lysine), but is then supplemented with a non-radioactive, isotopically labeled form of that essential amino acid (such as lysine labeled with ^13C atoms, rather than normal ^12C atoms), which is called “heavy media”. When the two populations of cells are each growing in the medium, they incorporate the amino acids into all of their proteins. The growth of cells maintained in the heavy media is no different from that in normal media. All peptides containing the heavy amino acids are heavier than their normal counterparts. The cells from each of the two populations of cells are lysed. The lysates from each of the two cell populations are then combined. The combined cell lysates are then analyzed by mass spectrometry. Pairs of chemically identical peptides of different stable isotope composition can be differentiated in a mass spectrometer due to their difference in mass. The ratio of peak intensities in the mass spectrum for such peptide pairs reflects the abundance ratio for the two proteins.\nThis example describes SILAC studies that were performed to compare the effects of three different HDAC inhibitors (Compound A, Compound B, and tubastatin A) to a control on a human multiple myeloma cell line. The HDAC inhibitors were also compared amongst themselves to determine differences in their effects.\nA human myeloma cell line MM.1S was grown using either ^12C (light) or ^13C (heavy) lysine containing culture medium. The “heavy” cells were treated with DMSO as the control, and the “light” cells were treated with a single HDAC inhibitor at 37° C. for 6 hours. The heavy and light cells were lysed, and the lysates were mixed in 1:1 ratio and digested with the protease trypsin. The acetylated lysine containing peptides (due to the action of the HDAC inhibitor) in the digested peptide pool were captured by a non-specific anti-acetylated lysine antibody cocktail (the antibodies identify both light and heavy acetylated peptides), and subjected to mass spectrometry analysis in order to identify thousands of individual peptides.\nThousands of peptides were identified in pairs (^12C and ^13C) due to their known mass differences. The amino acid sequence and quantitative ratio (Light/Heavy) of a given peptide in two differentially treated cell lysates were then determined and annotated with their possible protein (gene) sources.\nAs stated above, three HDAC inhibitors (Compound A, Compound B, and Tubastatin A) were used. Thus, the SILAC method was performed three times, with a different HDAC inhibitor compared to a control each time. Accordingly, there are three pairs of quantitative data in the table below, i.e., Compound A:DMSO, Compound B:DMSO, and Tubastatin A:DMSO. A cut-off of 1.30 fold of change (increase or decrease) was then used to determine “changed” or “+” in the table, and any peptides with a fold of change less than 1.3 fold were determined to be “unchanged” or “0” in the table. Those peptides that were not identified were marked as “NA” in the table. […]"}
{"smiles": "O=C(CCCCCCNC(=O)c1cnc(N(c2ccccc2)c2ccccc2)nc1)NO", "note": "[Compound A, 2-(diphenylamino)-N-(7-(hydroxyamino)-7-oxoheptyl)pyrimidine-5-carboxamide]", "values": [{"measurement": "light to heavy ratio (L/H ratio), log 2 scale, acetylated peptide KLQK(ac)AALLK (SEQ ID NO: 806)", "setting": "Ribosomal protein L14 variant [132], gene RPL14, drug:DMSO", "result": 1.00}, {"measurement": "light to heavy ratio (L/H ratio) of acetylated peptide […](ac)R (SEQ ID NO: 334)", "setting": "S1 IF1 type family protein [56], EIF1AXP1, drug:DMSO", "result": 0.00, "unit": "log 2"}, {"measurement": "L/H ratio of acetylated peptide LAELK(ac)QECLAR (SEQ ID NO: 94)", "setting": "SARNP 17], log 2 scale, drug vs DMSO", "result": 0.00}, {"measurement": "L/H ratio of acetylated peptide (ac)ATETVELHK(ac)LK (SEQ ID NO: 93)", "setting": "SARNP [10], log 2 scale, drug vs DMSO", "result": 0.00}, {"measurement": "L/H ratio of acetylated peptide ANLVFK(ac)EIEK (SEQ ID NO: 95)", "setting": "SCP2 [438], log 2 scale, drug vs DMSO", "result": 0.00}, {"measurement": "L/H ratio of acetylated peptide EGQNWLEK(ac)K (SEQ ID NO: 96)", "setting": "SEC11C [147], log 2 scale, drug vs DMSO", "result": 0.00}, {"measurement": "L/H ratio of acetylated peptide EHTALLK(ac)IEGVYAR", "setting": "SEQ ID NO: 630, 60S ribosomal protein L35a [29], RPL35A", "result": 0.49, "unit": "log 2"}, {"measurement": "L/H ratio of acetylated peptide FNDGSDEK(ac)KK", "setting": "SEQ ID NO: 631, ATP synthase subunit alpha mitochondrial [239], ATP5A1", "result": 0.49, "unit": "log 2"}, {"measurement": "L/H ratio of acetylated peptide FSK(ac)[…]", "setting": "SEQ ID NO: 632, X-ray repair cross-complementing protein 5 [144], XRCC5", "result": 0.50, "unit": "log 2"}, {"measurement": "L/H ratio of acetylated peptide LTCEEEEEK(ac)IFGR", "setting": "SEQ ID NO: 633, Isoform Short of Probable global transcription activator SNF2L2 [1302], SMARCA2", "result": 0.51, "unit": "log 2"}, {"measurement": "L/H ratio of acetylated peptide NDEELNK(ac)LLGR", "setting": "SEQ ID NO: 634, Histone H2A type 1-B/E [96], HIST1H2AE, HIST1H2AB, HIST1H2AD, HIST1H2AG, HIST1H2AK, HIST1H2AL, HIST1H2AM, HIST1H2AJ, HIST1H2AI", "result": 0.52, "unit": "log 2"}, {"measurement": "L/H ratio of acetylated peptide ALEAVFGK(ac)YGR", "setting": "SEQ ID NO: 635, Heterogeneous nuclear ribonucleoprotein G [30], RBMX", "result": 0.52, "unit": "log 2"}, {"measurement": "L/H ratio of acetylated peptide TFK(ac)[…]", "setting": "SEQ ID NO: 636, 60S ribosomal protein L3 [103], SNORD43, RPL3", "result": 0.52, "unit": "log 2"}, {"measurement": "L/H ratio of acetylated peptide YK(ac)[…]", "setting": "SEQ ID NO: 637, Protein disulfide-isomerase [328], P4HB", "result": 0.52, "unit": "log 2"}, {"measurement": "L/H ratio of acetylated peptide NAEK(ac)YAEEDRR", "setting": "SEQ ID NO: 638, Stress-70 protein mitochondrial [567], HSPA9", "result": 0.52, "unit": "log 2"}, {"measurement": "L/H ratio of acetylated peptide […](ac)DR", "setting": "SEQ ID NO: 639, pyruvate dehydrogenase E1 component subunit alpha somatic form mitochondrial isoform 2 precursor [359], PDHA1", "result": 0.53, "unit": "log 2"}, {"measurement": "L/H ratio of acetylated peptide GVDPK(ac)FLR", "setting": "SEQ ID NO: 640, Ribosomal protein L29 [38], RPL29, RPL29P4", "result": 0.53, "unit": "log 2"}, {"measurement": "L/H ratio of acetylated peptide LIK(ac)DGLIIR", "setting": "SEQ ID NO: 641, 60S ribosomal protein L19 [46], RPL19", "result": 0.53, "unit": "log 2"}, {"measurement": "L/H ratio of acetylated peptide HLLPK(ac)IR", "setting": "SEQ ID NO: 642, 6-phosphogluconate dehydrogenase decarboxylating [253], PGD", "result": 0.53, "unit": "log 2"}, {"measurement": "L/H ratio of acetylated peptide LGK(ac)PSLVR", "setting": "SEQ ID NO: 643, TOB3 [280], ATAD3B", "result": 0.53, "unit": "log 2"}, {"measurement": "L/H ratio of acetylated peptide EQIYK(ac)LAK", "setting": "SEQ ID NO: 644, 40S ribosomal protein S13 [39], RPS13", "result": 0.54, "unit": "log 2"}, {"measurement": "L/H ratio of acetylated peptide VEYFLK(ac)WK", "setting": "SEQ ID NO: 645, Chromobox protein homolog 3 [50], CBX3", "result": 0.54, "unit": "log 2"}, {"measurement": "L/H ratio of acetylated peptide HYK(ac)TDFDK", "setting": "SEQ ID NO: 646, Isocitrate dehydrogenase [NADP] mitochondrial [275], IDH2", "result": 0.54, "unit": "log 2"}, {"measurement": "L/H ratio of acetylated peptide EGYAWAEDK(ac)EHCEEYGR", "setting": "SEQ ID NO: 647, tRNA-splicing ligase RtcB homolog [190], C22orf28", "result": 0.54, "unit": "log 2"}, {"measurement": "L/H ratio of acetylated peptide LAYIAHPK(ac)LGK", "setting": "SEQ ID NO: 648, Ribosomal protein L29 [103], RPL29, RPL29P4", "result": 0.55, "unit": "log 2"}, {"measurement": "L/H ratio of acetylated peptide IFSQETLTK(ac)AQILK", "setting": "SEQ ID NO: 649, Prenylcysteine oxidase 1 [415], PCYOX1", "result": 0.55, "unit": "log 2"}, {"measurement": "L/H ratio of acetylated peptide […](ac)QNK", "setting": "SEQ ID NO: 650, Dihydrolipoyl dehydrogenase mitochondrial [143], DLD", "result": 0.55, "unit": "log 2"}, {"measurement": "L/H ratio of acetylated peptide FYVK(ac)DHR", "setting": "SEQ ID NO: 651, CDGSH iron-sulfur domain-containing protein 1 [37], CISD1", "result": 0.55, "unit": "log 2"}, {"measurement": "L/H ratio of acetylated peptide SPVNTK(ac)SLFK", "setting": "SEQ ID NO: 652, Isoform 1 of DNA-dependent protein kinase catalytic subunit [1057], PRKDC", "result": 0.55, "unit": "log 2"}, {"measurement": "L/H ratio of acetylated peptide HIVK(ac)EFK", "setting": "SEQ ID NO: 653, Stress-70 protein mitochondrial [288], HSPA9", "result": 0.56, "unit": "log 2"}, {"measurement": "L/H ratio of acetylated peptide MYKEEGLK(ac)AFYK", "setting": "SEQ ID NO: 654, Isoform A of Phosphate carrier protein mitochondrial [214], SLC25A3", "result": 0.56, "unit": "log 2"}, {"measurement": "L/H ratio of acetylated peptide LDAQVK(ac)ELVLK", "setting": "SEQ ID NO: 655, Dolichyl-diphospho-oligosaccharide--protein glycosyltransferase subunit 1 precursor [598], RPN1", "result": 0.56, "unit": "log 2"}, {"measurement": "L/H ratio of acetylated peptide GYPTLK(ac)[…]", "setting": "SEQ ID NO: 656, Thioredoxin domain-containing protein 5 [140], TXNDC5, MUTED, MUTED-TXNDC5", "result": 0.56, "unit": "log 2"}, {"measurement": "L/H ratio of acetylated peptide […](ac)EFR", "setting": "SEQ ID NO: 657, Isoform 1 of Clathrin heavy chain 1 [1264], CLTC", "result": 0.57, "unit": "log 2"}, {"measurement": "L/H ratio of acetylated peptide YK(ac)EALEQCR", "setting": "SEQ ID NO: 658, Isoform 2 of Antigen peptide transporter 2 [356], TAP2", "result": 0.57, "unit": "log 2"}, {"measurement": "L/H ratio of acetylated peptide YELTGK(ac)FER", "setting": "SEQ ID NO: 659, Annexin A6 [81], ANXA6", "result": 0.57, "unit": "log 2"}]}
